What all share (type): in vivo
For data set [1], the system named is peripheral blood lymphocyte number. Put plainly: Peripheral blood lymphocyte number decreasing action in mouse. Particulars: ip, male BALB/cAnNCrj mice, intraperitoneal, 24 hr after administration, read-out: ED50 (dose necessary for reducing the lymphocyte count of the vehicle group (100%) by 50%).
For data set [2] the test system is unchanged. Put plainly: Peripheral blood lymphocyte number decreasing action in rat. Particulars: male F344 rats, oral, 24 hr after administration, read-out: ED50 (dose necessary for reducing the lymphocyte count of the vehicle group (100%) by 50%).
Another data set relates to heart rate in rat. Put plainly: Action on heart rate in rat (telemetry, oral administration). The note with it: male Crl:CD(SD) rats, up to the dose of 30 mg/kg body weight, measured to 24 hr after administration. The method, then:
Action on Heart Rate in Rat
Male Crl:CD(SD) rats were anesthetized by intraperitoneal administration of Nembutal (manufactured by Dainippon Sumitomo Pharma Co., Ltd.), and a pressure sensor connected to a telemetry transmitter (TL11M2-C50-PTX, manufactured by Data Sciences International) was inserted into the abdominal aorta and a transmitter was subcutaneously placed in the abdomen. The blood pressure and heart rate data were recorded by an analysis software (Dataquest A.R.T., manufactured by Data Sciences International) via a receiver (RPC-1, manufactured by Data Sciences International). After confirmation of recovery of circadian rhythm of the heart rate, the rats were subjected to the experiment. The compound of the present invention was suspended in 0.5% hydroxypropylmethylcellulose (manufactured by Shin-Etsu Chemical Co., Ltd.) and orally administered. The heart rate was measured from 72 hr before the administration to 24 hr after the administration.

Structures are written as SMILES.

Usually ED50 stands for the dose at which the effect has come halfway, by size or by number of responders.

On to `Cl.NC(CO)(CO)CCc1ccc(OCCCc2ccc(C(F)(F)F)cc2)c(C(F)(F)F)c1` [Compound 11-4, 2-amino-2-(2-{3-trifluoromethyl-4-[3-(4-trifluoromethylphenyl)propoxy]phenyl}ethyl)propane-1,3-diol hydrochloride], for which the ED50 in data set [1] was 0.06 mg/kg; in data set [2] it was 0.09 mg/kg. Further, in the data set with heart rate in rat, the “Effect on heart rate” value is “did not reduce the heart rate”.
The matching figures for `Cl.NC(CO)(CO)CCc1ccc(OCCCc2cccc(C(F)(F)F)c2)c(C(F)(F)F)c1` [Compound 12-4, 2-amino-2-(2-{3-trifluoromethyl-4-[3-(3-trifluoromethylphenyl)propoxy]phenyl}ethyl)propane-1,3-diol hydrochloride]: 0.04 mg/kg, 0.11 mg/kg and “did not reduce the heart rate”.
The matching figures for `Cc1cccc(CCCOc2ccc(CCC(N)(CO)CO)cc2C(F)(F)F)c1.Cl` [Compound 15-4, 2-amino-2-(2-{4-[3-(3-methylphenyl)propoxy]-3-trifluoromethylphenyl}ethyl)propane-1,3-diol hydrochloride]: 0.03 mg/kg, 0.05 mg/kg and “did not reduce the heart rate”.

Source of the values: patent publication US8129361B2, “Amine compound and pharmaceutical use thereof” (Mitsubishi Tanabe Pharma Corporation, priority 2007, dated 2012).
